Where two headings read alike, the source gives them in different places.
Columns and labels:
OCI-AML3 cells = test: Dose-response curves in AML cell line (6-day culture assay in 384-well plates); type: cell-based; conditions: dose-response curves FIGS. 5H-J
Protocol: FIGS. 5A-5J show the results on experiments assessing the mode of action of Mubritinib for mediating tumor cell death. FIG. 5A: OCI-AML3 leukemic cells were either pre-incubated for 4 hours with 6 mM N-acetyl-cysteine (NAC), a reactive oxygen species (ROS) scavenger, or with vehicle (water) before being treated with 100 nM Mubritinib for 24 h or vehicle (DMSO). […] FIGS. 5C and 5D show the levels of reduced and oxidized levels of glutathione, respectively, in OCI-AML3 treated or not with Mubritinib, as detected by liquid chromatography-mass spectrometry (LC/MS). […] FIG. 5G is a graph depicting dose-response curves upon Mubritinib treatment (6-day culture assay in 384-well plates) of OCI-AML3 and OCI-AML5 cell lines. FIGS. 5H-J are graphs depicting dose-response curves following treatment of OCI-AML3 and OCI-AML5 cell lines with other ETC inhibitors, namely Oligomycin (inhibitor of complex V, FIG. 5H), Rotenone (inhibitor of complex I, FIG. 5I) and Deguelin (inhibitor of complex I, FIG. 5J).
OCI-AML3 cells were maintained in alpha-MEM, 20% FBS whereas breat tumor BT474 cells were maintained in DMEM 10% FBS.
(§1) Patient cells were seeded in 384-well plates at a density of 5,000 cells in 50 μL per well. In the initial screen, compounds were added to seeded cells in serial dilutions (10 dilutions, 1:3, starting from 10 μM or 20 μM), in duplicates. Cells treated with 0.1% DMSO without additional compound were used as negative controls. Viable cell counts per well were evaluated after 6 days of culture using the CellTiterGlo® assay (Promega®) according to the manufacturer's instruction. The percent of inhibition was calculated as follows: 100−(100×(mean luminescence(compound)/mean luminescence(DMSO)); where mean-luminescence(compound) corresponds to the average of luminescent signals obtained for the compound-treated cells, and mean-luminescence(DMSO) corresponds to the average of luminescent signals obtained for the control DMSO-treated cells.

[1] = tested on: HOX-high AML patient cells; test: Primary chemical screen of 60 compounds, cell dose-response viability assay (CellTiterGlo, 6 days); type: cell-based, human; conditions: for EC50: read-out: MEAN EC50 HOX-high
Protocol: (§2) frozen AML mono-nucleated cells were thawed at 37° C. in Iscove's modified Dulbecco's medium (IMDM) containing 20% FBS and DNase I (100 μg/mL).
(§3) All powders were dissolved in DMSO and diluted in culture medium immediately before use. Final DMSO concentration in all conditions was 0.1%. The 60 compounds were purchased from various suppliers including Santa Cruz, Selleckchem, Calbiochem, AdooQ Bioscience, Cayman chemical and Synkinase.
(§4) Patient cells were seeded in 384-well plates at a density of 5,000 cells in 50 μL per well. In the initial screen, compounds were added to seeded cells in serial dilutions (10 dilutions, 1:3, starting from 10 μM or 20 μM), in duplicates. Cells treated with 0.1% DMSO without additional compound were used as negative controls. Viable cell counts per well were evaluated after 6 days of culture using the CellTiterGlo® assay (Promega®) according to the manufacturer's instruction.
(§5) Using high expression of HOXA9 and HOXA10 as a surrogate for the detection of HOX-network-high patient samples, the survival of HOX-high versus HOX-med/low specimens contacted with 60 inhibitors targeting receptor tyrosine kinases (RTK), members of the RAS and PI3K pathways, was assessed (FIG. 2A, Table 4).

[2] = tested on: HOX-med/low AML patient cells; test: as above; type: cell-based, human; conditions: read-out: MEAN EC50 HOX-med/low
Protocol: as §2, §3, §4, §5

AML patient specimens = test: Cell dose-response viability assay on AML patient specimens (primary and validation screen); type: cell-based, human; conditions: all 41 AML patient specimens tested, primary screen (FIG. 4D)
Protocol: as §2, §1

[3] = primary screen, mean over HOX-high patient specimens, 6 days culture, top concentration 10 μM or 20 μM
[4] = ratio of mean EC50 HOX-high to mean EC50 HOX-med/low
[5] = primary screen, mean over HOX-med/low patient specimens, 6 days culture, top concentration 10 μM or 20 μM
[6] = Homo sapiens, 144 h, primary screen, mean over HOX-high patient specimens, 6 days culture, top concentration 10 μM or 20 μM
[7] = Homo sapiens, 144 h, primary screen, mean over HOX-med/low patient specimens, 6 days culture, top concentration 10 μM or 20 μM

Compound: COc1cc2c(cc1OC)[C@@H]1C(=O)c3ccc4c(c3O[C@@H]1CO2)C=CC(C)(C)O4 [Deguelin]
- sensitivity of OCI-AML3 relative to OCI-AML5 (OCI-AML3 cells): more sensitive than OCI-AML5

Compound: C=C(C)[C@H]1Cc2c(ccc3c2O[C@@H]2COc4cc(OC)c(OC)cc4[C@@H]2C3=O)O1 [Rotenone]
- sensitivity of OCI-AML3 relative to OCI-AML5 (OCI-AML3 cells): more sensitive than OCI-AML5

Compound: CC[C@H]1/C=C/C=C/C[C@@H](C)[C@H](O)[C@@](C)(O)C(=O)[C@@H](C)[C@H](O)[C@@H](C)C(=O)[C@@H](C)[C@H](O)[C@@H](C)/C=C/C(=O)O[C@@H]2[C@H](C)[C@H](CC1)O[C@]1(CC[C@H](C)[C@H](C[C@@H](C)O)O1)[C@H]2C [Oligomycin]
- sensitivity of OCI-AML3 relative to OCI-AML5 (OCI-AML3 cells): more sensitive than OCI-AML5

Compound: COc1cc2nccc(Oc3ccc(NC(=O)Nc4ccc(F)cc4F)c(F)c3)c2cc1OC [Ki8751]
- EC50 [1, 3]: 0.844 µM
- FOLD CHANGE High/Med-low [1, 4]: 1.1
- EC50 [2, 5]: 0.768 µM

Compound: Cc1cn(-c2cc(NC(=O)c3ccc(C)c(Nc4nccc(-c5cccnc5)n4)c3)cc(C(F)(F)F)c2)cn1 [Nilotinib]
- EC50 [1, 6]: 3.92 µM
- FOLD CHANGE High/Med-low [1, 4]: 1.0
- EC50 [2, 7]: 3.81 µM

Compound: CN(C)CCOc1ccc(-c2nc(-c3ccncc3)c(-c3ccc4c(c3)CC/C4=N\O)[nH]2)cc1 [SB590885]
- EC50 [1, 6]: 5.88 µM
- FOLD CHANGE High/Med-low [1, 4]: 1.5
- EC50 [2, 7]: 3.88 µM

Compound: NC1(c2ccc(-c3nc4ccn5c(=O)[nH]nc5c4cc3-c3ccccc3)cc2)CCC1 [MK2206]
- EC50 [1, 6]: 2.28 µM
- FOLD CHANGE High/Med-low [1, 4]: 2.2
- EC50 [2, 7]: 1.04 µM

Compound: C[S+]([O-])c1ccc(-c2nc(-c3ccc(F)cc3)c(-c3ccncc3)[nH]2)cc1 (stereo not shown) [SB.203580]
- FOLD CHANGE High/Med-low [1]: 1.0
- EC50 [1]: > 10 µM
- EC50 [2]: > 10 µM

Compound: CC(C)(C)c1cc(NC(=O)Nc2ccc(-c3cn4c(n3)sc3cc(OCCN5CCOCC5)ccc34)cc2)no1 [Quizartinib]
- EC50 [1, 6]: 0.23 µM
- FOLD CHANGE High/Med-low [1, 4]: 0.4
- EC50 [2, 7]: 0.52 µM

Compound: COc1ccc(-c2ccc3c(N4CCOC[C@@H]4C)nc(N4CCOC[C@@H]4C)nc3n2)cc1CO [AZD8055, (5-(2,4-bis((S)-3-methylmorpholino)pyrido[2,3-d]pyrimidin-7-yl)-2-methoxyphenyl)methanol]
- EC50 [1, 6]: 0.324 µM
- FOLD CHANGE High/Med-low [1, 4]: 4.7
- EC50 [2, 7]: 0.0692 µM

Compound: Cn1cc(C2=C(c3cn(C4CCN(Cc5ccccn5)CC4)c4ccccc34)C(=O)NC2=O)c2ccccc21 [Enzastaurin]
- EC50 [1, 6]: 9.84 µM
- FOLD CHANGE High/Med-low [1, 4]: 1.0
- EC50 [2, 7]: > 10 µM

Compound: Cc1ccc(NC(=O)c2ccc(CN3CCN(C)CC3)cc2)cc1Nc1nc(-c2cccnc2)cs1 [Masitinib]
- EC50 [1, 6]: 7.01 µM
- FOLD CHANGE High/Med-low [1, 4]: 1.5
- EC50 [2, 7]: 4.57 µM

Compound: CC(C)c1cc(/C=C(\C#N)C(=O)NCCCc2ccccc2)cc(C(C)C)c1O [SU1498]
- EC50 [1, 3]: 9.86 µM
- FOLD CHANGE High/Med-low [1, 4]: 1.0
- EC50 [2, 5]: 9.67 µM

Compound: CCN(CC)CCCCNc1ncc2cc(-c3cc(OC)cc(OC)c3)c(NC(=O)NC(C)(C)C)nc2n1 [PD173074]
- EC50 [1, 3]: 4.95 µM
- FOLD CHANGE High/Med-low [1, 4]: 1.0
- EC50 [2, 5]: 5.2 µM

Compound: C[C@]1(O)C[C@@H](c2nc(-c3ccc4ccc(-c5ccccc5)nc4c3)c3c(N)nccn32)C1 [OS1906 Linsitinib., Linsitinib]
- EC50 [1, 6]: 4.25 µM
- FOLD CHANGE High/Med-low [1, 4]: 1.1
- EC50 [2, 7]: 3.94 µM

Compound: Cc1nc2cc3nc(-c4cccs4)cnc3cc2n1C [AGL2043]
- EC50 [1, 3]: 8.88 µM
- FOLD CHANGE High/Med-low [1, 4]: 1.1
- EC50 [2, 5]: 8.38 µM

Compound: CC(=O)Nc1cccc(-n2c(=O)n(C3CC3)c(=O)c3c(Nc4ccc(I)cc4F)n(C)c(=O)c(C)c32)c1 [Trametinib GSK1120212, Trametinib]
- EC50 [1, 6]: 0.0253 µM
- FOLD CHANGE High/Med-low [1, 4]: 1.4
- EC50 [2, 7]: 0.018 µM

Compound: COc1cc2nccc(Oc3ccc(NC(=O)NC4CC4)c(Cl)c3)c2cc1C(N)=O [E7080 Lenvatinib., Lenvatinib]
- EC50 [1, 6]: 7.29 µM
- FOLD CHANGE High/Med-low [1, 4]: 2.2
- EC50 [2, 7]: 3.34 µM

Compound: O=C(NOCC1CC1)c1ccc(F)c(F)c1Nc1ccc(I)cc1Cl [CI1040 PD.184352.]
- EC50 [1, 6]: 2.44 µM
- FOLD CHANGE High/Med-low [1, 4]: 0.9
- EC50 [2, 7]: 2.77 µM

Compound: N#Cc1ccc(C(=O)Nc2cc(N3CCCCC3)ccc2N2CCCCC2)o1 [cFMS Receptor Inhibitor IV]
- EC50 [1, 3]: > 10 µM
- FOLD CHANGE High/Med-low [1, 4]: 1.0
- EC50 [2, 5]: 9.57 µM

Compound: C=CCNC1=C2C[C@@H](C)C[C@H](OC)[C@H](O)[C@@H](C)/C=C(\C)[C@H](OC(N)=O)[C@@H](OC)/C=C\C=C(/C)C(=O)NC(=CC1=O)C2=O [Tanespimycin 17AAG, Tanespimycin]
- EC50 [1, 6]: 0.314 µM
- FOLD CHANGE High/Med-low [1, 4]: 1.3
- EC50 [2, 7]: 0.249 µM

Compound: CS(=O)(=O)CCNCc1ccc(-c2ccc3ncnc(Nc4ccc(OCc5cccc(F)c5)c(Cl)c4)c3c2)o1 [Lapatinib ditosylate., Lapatinib ditosylate]
- EC50 [1, 6]: 8.87 µM
- FOLD CHANGE High/Med-low [1, 4]: 0.9
- EC50 [2, 7]: 9.92 µM
- sensitivity of AML patient specimens (AML patient specimens): resistant

Compound: Cc1nc(NC(=O)N2CCC[C@H]2C(N)=O)sc1-c1ccnc(C(C)(C)C(F)(F)F)c1 [BYL719]
- EC50 [1, 6]: 7.52 µM
- FOLD CHANGE High/Med-low [1, 4]: 1.6
- EC50 [2, 7]: 4.75 µM

Compound: Cc1ccc(C(=O)Nc2cccc(C(F)(F)F)c2)cc1Nc1nc(-c2cccnc2)nc2c1cnn2C [NVPBHG712]
- EC50 [1, 3]: 4.44 µM
- FOLD CHANGE High/Med-low [1, 4]: 0.9
- EC50 [2, 5]: 5.21 µM

Compound: CNC(=O)c1cccc(-c2ccc3c(N4CCOC[C@@H]4C)nc(N4CCOC[C@@H]4C)nc3n2)c1 [AZD2014, 3-(2,4-bis((S)-3-methylmorpholino)pyrido[2,3-d]pyrimidin-7-yl)-N-methylbenzamide]
- EC50 [1, 6]: 0.782 µM
- FOLD CHANGE High/Med-low [1, 4]: 3.6
- EC50 [2, 7]: 0.217 µM

Compound: Nc1[nH]nc2nnc(-c3c(-c4ccccc4)nn4ccccc34)cc12 [ERK Inhibitor II FR180204]
- EC50 [1, 3]: > 10 µM
- FOLD CHANGE High/Med-low [1, 4]: 1.0
- EC50 [2, 5]: > 10 µM

Compound: C#Cc1cccc(Nc2ncnc3cc(OCCOC)c(OCCOC)cc23)c1 [Erlotinib]
- EC50 [1, 6]: 8.66 µM
- FOLD CHANGE High/Med-low [1, 4]: 0.9
- EC50 [2, 7]: 9.14 µM

Compound: CNc1cc2c(Nc3cccc(Br)c3)ncnc2cn1 [PD158780]
- EC50 [1, 3]: 7.47 µM
- FOLD CHANGE High/Med-low [1, 4]: 1.0
- EC50 [2, 5]: 7.71 µM

Compound: Cc1ccc(Nc2c(C(N)=O)cnc3cc(-c4ccc(S(C)(=O)=O)cc4)ccc23)cc1C [cFMS Receptor Inhibitor III]
- EC50 [1, 3]: 8.86 µM
- FOLD CHANGE High/Med-low [1, 4]: 1.1
- EC50 [2, 5]: 7.97 µM

Compound: CCCS(=O)(=O)Nc1ccc(F)c(C(=O)c2c[nH]c3ncc(-c4ccc(Cl)cc4)cc23)c1F [Vemurafenib]
- EC50 [1, 6]: 9.7 µM
- FOLD CHANGE High/Med-low [1, 4]: 1.2
- EC50 [2, 7]: 8.44 µM

Compound: Cn1cnc2c(F)c(Nc3ccc(Br)cc3Cl)c(C(=O)NOCCO)cc21 [Selumetinib AZD6244., Selumetinib]
- EC50 [1, 6]: 1.24 µM
- FOLD CHANGE High/Med-low [1, 4]: 0.9
- EC50 [2, 7]: 1.38 µM

Compound: CC[C@H](Nc1ncnc2[nH]cnc12)c1nc2cccc(F)c2c(=O)n1-c1ccccc1 [GS1101 idelalisib CAL101, idelalisib]
- EC50 [1, 6]: 7.47 µM
- FOLD CHANGE High/Med-low [1, 4]: 1.3
- EC50 [2, 7]: 5.67 µM

From patent US20200188361A1, “USE OF MITOCHONDRIAL ACTIVITY INHIBITORS FOR THE TREATMENT OF POOR PROGNOSIS ACUTE MYELOID LEUKEMIA” (UNIVERSITE DE MONTREAL, priority 2016, published 2020)
